In US10000471B2, “Pyrazole P38 map kinase inhibitors” (Respivert Limited, priority 2010, dated 2018):
pIC50: −log10 of the molar value.

Assays:
[1] = tested on: ICAM-1 induction in BEAS2B cells; assay: Poly I:C-induced ICAM-1 induction in BEAS2B cells; type: cell-based, human; settings: Homo sapiens, BEAS-2B, read-out: PolyIC/ICAM1 IC50 BEAS2B
How it was run: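 Human bronchial epithelial BEAS2B cells were pre-incubated with compound for 2 hr, then transfected with 1 μg/mL poly I:C. After 18 hr, surface ICAM-1 was measured by cell-based ELISA (OD450-655) and normalized to crystal violet cell counts (OD595). IC50 came from inhibition versus vehicle across the concentration-response curve.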

p38 MAPKγ (MAPK12) = target: T1, p38 MAPKγ (MAPK12) (Homo sapiens, UniProt P53778); assay: Enzyme inhibition assay (FRET, Z-LYTE), p38 MAPKγ; type: biochemical; settings: read-out: Enzyme Inhibition IC50 p38γ
T1 construct: purchased Invitrogen
T1 sequence (P53778 1-367): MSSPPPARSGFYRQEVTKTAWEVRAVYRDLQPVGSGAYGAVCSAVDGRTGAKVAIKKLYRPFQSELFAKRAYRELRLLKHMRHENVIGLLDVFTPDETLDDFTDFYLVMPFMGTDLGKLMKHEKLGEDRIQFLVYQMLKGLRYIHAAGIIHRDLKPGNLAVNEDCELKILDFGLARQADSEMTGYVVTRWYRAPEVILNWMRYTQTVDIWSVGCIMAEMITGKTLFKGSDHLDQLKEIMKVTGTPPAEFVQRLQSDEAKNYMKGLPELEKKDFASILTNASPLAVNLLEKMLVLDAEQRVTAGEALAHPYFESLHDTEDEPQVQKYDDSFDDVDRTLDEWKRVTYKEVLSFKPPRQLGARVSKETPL
How it was run: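 Recombinant phosphorylated p38 MAPKγ preincubated 2 h at RT with compound in HEPES buffer, then 2 μM FRET peptide and 100 μM ATP added for 1 h; protease development 1 h. Coumarin/fluorescein emission ratio gave phosphorylation; IC50 from concentration-response versus uninhibited control.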

pIC50 (p38 MAPKγ (MAPK12)) | SMILES | pIC50 [1]
7.17 | CNC(=O)Nc1cc(Oc2ccc(NC(=O)Nc3cc(C(C)(C)C)nn3-c3ccc(OC)cc3)c(Cl)c2Cl)ccn1 [Example 9, N-Methyl-N′-4-(4-(3-(3-tert-butyl-1-p-anisyl-1H-pyrazol-5-yl)ureido)-2,3-dichlorophen-1-yloxy)pyridin-2-ylurea] | 9.52
6.87 | COc1ccc(-n2nc(C(C)(C)C)cc2NC(=O)Nc2ccc(Oc3ccnc(NC(=O)N4CCCC4)c3)c(Cl)c2Cl)cc1 [Example 76, N-(4-(4-(3-(3-(tert-butyl)-1-(4-methoxyphenyl)-1H-pyrazol-5-yl)ureido)-2,3-dichlorophenoxy)pyridin-2-yl)pyrrolidine-1-carboxamide] | 9.52
